The results in this text go back to PubChem BioAssay (NCI).

SMILES strings stand for the structures.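 All cell lines were grown in 96-well plates and treated with compound for 48 hours. The concentration for full growth arrest is given as TGI.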

Among the test systems are SK-OV-3 ovarian; MDA-MB-435; HOP-62 NSCLC; SK-MEL-5 melanoma; SF-295 CNS; MOLT-4 leukemia; NCI-H226 lung; SK-MEL-28 melanoma; CAKI-1 renal; RXF 393 renal.
Test in all cases: DTP human tumour cell line panel, 48 h

The TGI is the concentration giving total growth inhibition. As for `OC(CC(c1ccccc1)c1ccc(Cl)cc1)c1ccc(Cl)cc1` (stereo unspecified), the TGI in the experiment with SK-OV-3 ovarian is 90.8 µM; with MDA-MB-435, 91.5 µM; in the experiment with HOP-62 NSCLC it was 91.4 µM; in the experiment on SK-MEL-5 melanoma it was 88.1 µM; with SF-295 CNS it was 92 µM; in the experiment on MOLT-4 leukemia, greater than 100 µM. Besides, the total growth inhibition concentration (TGI) with NCI-H226 lung was 97.5 µM; in the experiment on SK-MEL-28 melanoma, greater than 100 µM; with CAKI-1 renal it was greater than 100 µM; in the experiment with RXF 393 renal, 65.8 µM.
`N#Cc1c(N)c(-c2ccc(Cl)cc2)c(F)c2ccccc12`: the concentration for total growth inhibition (TGI) with SK-OV-3 ovarian, in the experiment on MDA-MB-435, with HOP-62 NSCLC, in the experiment with SK-MEL-5 melanoma, in the experiment on SF-295 CNS and in the experiment on NCI-H226 lung was greater than 100 µM each time. Moreover, the TGI is greater than 100 µM in the experiment on SK-MEL-28 melanoma, greater than 100 µM in the experiment on CAKI-1 renal and 58.3 µM with RXF 393 renal.
Consider `Oc1c2cccc1Cc1cccc3c1OCCOCCOCCOCCOc1c(cccc1Cc1cccc(c1O)C3)C2`, for which the TGI with SK-OV-3 ovarian, in the experiment on MDA-MB-435, with HOP-62 NSCLC, with SK-MEL-5 melanoma, in the experiment with SF-295 CNS and with MOLT-4 leukemia was greater than 100 µM in each case. In addition, the TGI in the experiment with NCI-H226 lung is 81 µM; in the experiment with SK-MEL-28 melanoma, greater than 100 µM; in the experiment with CAKI-1 renal, greater than 100 µM; in the experiment with RXF 393 renal it was greater than 100 µM.
Turning to `CC1=NNC(N)=N/C1=C/C(Sc1ccc(Cl)cc1)c1cccs1` (stereo unspecified), the TGI is 26.4 µM in the experiment with SK-OV-3 ovarian; 55.3 µM in the experiment with MDA-MB-435; 28.7 µM with HOP-62 NSCLC; 25.6 µM with SK-MEL-5 melanoma; 31.3 µM with SF-295 CNS; greater than 100 µM in the experiment with MOLT-4 leukemia. The TGI turned out to be 32.6 µM in the experiment on NCI-H226 lung, 39.7 µM in the experiment with SK-MEL-28 melanoma, 53.9 µM in the experiment on CAKI-1 renal and 34.7 µM in the experiment with RXF 393 renal.
`Cc1ccc(-c2cc(-c3ccc(Cl)cc3)nc(/N=C3\C(=O)N(CN4CCCCC4)c4ccc(Cl)cc43)n2)cc1`: the total growth inhibition concentration (TGI) is greater than 100 µM with SK-OV-3 ovarian; 42.9 µM in the experiment with MDA-MB-435; 98.2 µM in the experiment with HOP-62 NSCLC; 48.1 µM with SK-MEL-5 melanoma; greater than 100 µM with SF-295 CNS; 63.4 µM in the experiment on MOLT-4 leukemia. Besides, the total growth inhibition concentration (TGI) in the experiment on NCI-H226 lung was greater than 100 µM; in the experiment with SK-MEL-28 melanoma, greater than 100 µM; in the experiment on CAKI-1 renal, 64.7 µM; with RXF 393 renal it was 33.2 µM.
Consider `COc1ccc(Cn2nc(OCc3ccccn3)c3cc([N+](=O)[O-])ccc32)cc1`, for which the TGI in the experiment with SK-OV-3 ovarian, in the experiment with MDA-MB-435, in the experiment on HOP-62 NSCLC, with SK-MEL-5 melanoma, in the experiment on SF-295 CNS and in the experiment on MOLT-4 leukemia was greater than 100 µM in each case. In addition, the concentration for total growth inhibition (TGI) in the experiment with NCI-H226 lung, with SK-MEL-28 melanoma, with CAKI-1 renal and in the experiment on RXF 393 renal was greater than 100 µM each time.
In the case of `CCCCC[C@H](O)[C@H](C)C=C1SCCCS1`, the TGI in the experiment with SK-OV-3 ovarian, in the experiment with MDA-MB-435, with HOP-62 NSCLC, in the experiment on SK-MEL-5 melanoma, with SF-295 CNS and with MOLT-4 leukemia was greater than 100 µM in each case. The total growth inhibition concentration (TGI) with NCI-H226 lung, with SK-MEL-28 melanoma, in the experiment on CAKI-1 renal and in the experiment on RXF 393 renal was greater than 100 µM in each case.
`C=C(CCOC)CCC1CCCCC(=C)C1=O` (stereo unspecified): the concentration for total growth inhibition (TGI) in the experiment with SK-OV-3 ovarian, with MDA-MB-435, with HOP-62 NSCLC, with SK-MEL-5 melanoma, in the experiment on SF-295 CNS and in the experiment with MOLT-4 leukemia was greater than 100 µM throughout. For the same compound, the total growth inhibition concentration (TGI) with NCI-H226 lung, in the experiment on SK-MEL-28 melanoma, with CAKI-1 renal and with RXF 393 renal was greater than 100 µM throughout.
As to `Cn1c(N)c(/C=N/NC(=O)CC#N)c(=O)n(C)c1=O`, the total growth inhibition concentration (TGI) in the experiment on SK-OV-3 ovarian, in the experiment on MDA-MB-435, in the experiment on HOP-62 NSCLC, in the experiment on SK-MEL-5 melanoma, in the experiment with SF-295 CNS and in the experiment on MOLT-4 leukemia was greater than 100 µM in each case. Further, the TGI in the experiment with NCI-H226 lung, with SK-MEL-28 melanoma, in the experiment with CAKI-1 renal and in the experiment with RXF 393 renal was greater than 100 µM throughout.
With `COc1ccc(C2CC(c3c(C)nn(-c4ccccc4)c3-c3ccc(C)cc3O)=NN2c2ccccc2)cc1` (stereo unspecified), the TGI in the experiment with SK-OV-3 ovarian, in the experiment with MDA-MB-435, with HOP-62 NSCLC, with SK-MEL-5 melanoma, in the experiment on SF-295 CNS and in the experiment with MOLT-4 leukemia was greater than 100 µM each time. Moreover, the concentration for total growth inhibition (TGI) with NCI-H226 lung, in the experiment on SK-MEL-28 melanoma, in the experiment on CAKI-1 renal and with RXF 393 renal was greater than 100 µM throughout.
With `O=[N+]([O-])c1ccc2nc3ccc([N+](=O)[O-])cn3c2c1`, the total growth inhibition concentration (TGI) with SK-OV-3 ovarian is greater than 100 µM; in the experiment with MDA-MB-435, greater than 100 µM; in the experiment on HOP-62 NSCLC, 39.1 µM; in the experiment on SK-MEL-5 melanoma, greater than 100 µM; with SF-295 CNS, greater than 100 µM; in the experiment with MOLT-4 leukemia it was greater than 100 µM. In addition, the TGI with NCI-H226 lung was greater than 100 µM; in the experiment on SK-MEL-28 melanoma it was greater than 100 µM; in the experiment on CAKI-1 renal it was 89.2 µM; with RXF 393 renal it was greater than 100 µM.
For the compound `O=C1CSC2(CC(/C=C/C=C/c3ccccc3)=NN2c2cccc(S(=O)(=O)O)c2)N1c1nc2ccccc2s1` (stereo unspecified), the concentration for total growth inhibition (TGI) in the experiment with MDA-MB-435 was 55.6 µM; in the experiment with SK-MEL-5 melanoma, greater than 100 µM; with MOLT-4 leukemia it was 67.1 µM; in the experiment with NCI-H226 lung it was greater than 100 µM; in the experiment on SK-MEL-28 melanoma, greater than 100 µM; in the experiment on CAKI-1 renal, greater than 100 µM. The same compound registered a TGI in the experiment on RXF 393 renal greater than 100 µM.
As for `O=C(C[C@@H]1NCCC[C@H]1O)Cn1cnc2cc(Br)c(Cl)cc2c1=O`, the TGI in the experiment with SK-OV-3 ovarian is 0.813 µM; with MDA-MB-435, 0.076 µM; in the experiment on HOP-62 NSCLC it was 1.01 µM; in the experiment with SK-MEL-5 melanoma, 0.0473 µM; in the experiment on SF-295 CNS, 0.337 µM; with MOLT-4 leukemia, greater than 100 µM. Also, the TGI with NCI-H226 lung came to 0.0473 µM; with SK-MEL-28 melanoma, 0.119 µM; in the experiment with CAKI-1 renal, 0.313 µM; in the experiment on RXF 393 renal it was 0.0814 µM.
